Data: patent publication US5442064A, “Carboxylic acid derivatives, pharmaceutical compositions containing these compounds and processes for preparing them” (Dr. Karl Thomae GmbH, priority 1992, dated 1995)
Counter-ions that a name gives are not always drawn.

What was measured:
human thrombocytes = experiment: Competitive binding of ^3 H-BIBU 52/test substance to human thrombocytes; conditions: human thrombocytes in plasma; ^3 H-BIBU 52 5 nM; ambient temperature, 20 minutes
Protocol: 1. Competitive binding of ^3 H-BIBU 52/test substance to human thrombocytes: […] Case 5/1093-FL), which replaces the ^125 I fibrinogen ligand known from the literature and various concentrations of the substance to be tested. The free and bound ligand is separated by centrifuging and quantified by scintillation counting. The inhibition of ^3 H-BIBU 52 binding by the test substance is determined from the measurements obtained. In order to do this, donor blood is taken from an anticubital vein and anticoagulated with trisodium citrate (final concentration 13 mM). The blood is centrifuged for 10 minutes at 170×g and the supernatant platelet-rich plasma (PRP) is removed. The remaining blood is vigorously centrifuged once more in order to obtain plasma. The PRP is diluted 1:10 with autologous plasma. 750 μl are incubated with 50 μl of physiological saline solution, 100 μl of test substance solution, 50 μl of ^14 C-sucrose (3,700 Bq) and 50 μl of ^3 H-BIBU 52 (final concentration: 5 nM) at ambient temperature for 20 minutes. In order to measure the non-specific binding, 5μl of BIBU 52 (final concentration: 30 μM) are used instead of the test substance. The samples are centrifuged for 20 seconds at 10,000×g and the supernatant is poured off. 100 μl thereof are measured in order to determine the free ligand. The pellet is dissolved in 500 μl of 0.2N NaOH, 450 μl are mixed with 2 ml of scintillator and 25 μl of 5N HCl and measured. The residual plasma remaining in the pellet is determined from the ^14 C-content and the bound ligand is determined from the ^3 H-measurement. After the non-specific binding has been deducted, the pellet activity is plotted against the concentration of the test substance and the concentration for 50% inhibition of binding is determined. 2. Antithrombotic activity

platelet aggregation = experiment: Inhibition of platelet aggregation (collagen-induced, Born and Cross, platelet-rich plasma of healthy volunteers); format: cell-based; conditions: Homo sapiens, Platelet, 10 minutes preincubation at 37° C
Protocol: In order to do this, donor blood is taken from an anticubital vein and anticoagulated with trisodium citrate (final concentration 13 mM). The blood is centrifuged for 10 minutes at 170×g and the supernatant platelet-rich plasma (PRP) is removed. The remaining blood is vigorously centrifuged once more in order to obtain plasma. The PRP is diluted 1:10 with autologous plasma. 750 μl are incubated with 50 μl of physiological saline solution, 100 μl of test substance solution, 50 μl of ^14 C-sucrose (3,700 Bq) and 50 μl of ^3 H-BIBU 52 (final concentration: 5 nM) at ambient temperature for 20 minutes. In order to measure the non-specific binding, 5μl of BIBU 52 (final concentration: 30 μM) are used instead of the test substance. The samples are centrifuged for 20 seconds at 10,000×g and the supernatant is poured off. 100 μl thereof are measured in order to determine the free ligand. The pellet is dissolved in 500 μl of 0.2N NaOH, 450 μl are mixed with 2 ml of scintillator and 25 μl of 5N HCl and measured. The residual plasma remaining in the pellet is determined from the ^14 C-content and the bound ligand is determined from the ^3 H-measurement. After the non-specific binding has been deducted, the pellet activity is plotted against the concentration of the test substance and the concentration for 50% inhibition of binding is determined. 2. Antithrombotic activity The thrombocyte aggregation is measured using the method of Born and Cross (J. Physiol. 170: 397 (1964)) in platelet-rich plasma taken from healthy volunteers. To inhibit coagulation the blood is mixed with 3.14% sodium citrate in a volume ratio of 1:10. The pattern of the decrease in optical density of the platelet suspension is photometrically measured and recorded after the addition of the aggregation-triggering substance. The rate of aggregation is determined from the angle of inclination of the density curve. The point on the curve where there is maximum light transmittance is used to calculate the optical density. The concentration of collagen used is as small as possible but sufficient to produce an irreversible reaction curve. Standard commercial collagen produced by Hormonchemie of Munich is used. Before the addition of the collagen the plasma is incubated for 10 minutes with the substance at 37° C. From the concentration/activity curve an EC50 is determined, which describes the concentration giving a 50% change in the optical density in terms of the inhibition of aggregation.

mice = experiment: Tolerability after intravenous administration to mice; format: in vivo; conditions: 30 mg/kg, three mice in each case
[1] = system: collagen-induced thrombocyte aggregation; experiment: Collagen-induced thrombocyte aggregation ex vivo after oral administration, Rhesus monkeys; format: in vivo; conditions: 1 mg/kg, collagen 2 μg/ml
Protocol: The inhibition of thrombocyte aggregation after oral administration of the test substance is determined ex vivo on Rhesus monkeys. Directly before the oral administration of the test substance suspended in Natrosol, a blood sample is taken from the cubital vein of the animals to provide a reference value. At specified times after the administration of the substance, fresh blood samples are taken and investigated as follows. The whole blood mixed with 3.14% sodium citrate in a ratio by volume of 1:10 is centrifuged at 200×g for 15 minutes. The supernatant, platelet-rich plasma, is carefully removed. From the sediment which is rich in erythrocytes, the platelet-poor plasma is obtained as supernatant,by centrifuging at 4000×g for 10 minutes. The thrombocyte aggregation triggered with collagen (Hormonchemie, Munich; 2 μg/ml final concentration in platelet-rich plasma) in these ex vivo samples is measured photometrically using the method of Born and Cross (J. Physiol. 170, 397 (1964)). The maximum light transmittance of the platelet-rich plasma, measured after collagen stimulation, is compared with the reference value in order to determine the inhibition of aggregation at the various times of blood sampling after the administration of the substance, relative to the reference value.

Row | SMILES | IC50 (human thrombocytes) [nM] | EC50 (platelet aggregation) [nM] | tolerability (animals died) (mice) | inhibits the collagen-induced thrombocyte aggregation ex vivo (duration) [1]
1 | Cl.Cl.N=C(N)c1ccc(N2CCN(C(=O)N[C@H]3CC[C@H](C(=O)O)CC3)CC2)nc1 [2(7), 1-(5-amidinopyrid-2-yl)-4-[N-(trans-4-carboxycyclohexyl)-aminocarbonyl]-piperazine-dihydrochloride] | 29 | 80 | no animals died | –
2 | CN(C(=O)N1CCN(c2ccc(C(=N)N)cn2)CC1)[C@H]1CC[C@H](C(=O)O)CC1.Cl.Cl [2(8), 1-(5-amidinopyrid-2-yl)-4-[N-(trans-4-carboxycyclohexyl)-N-methyl-aminocarbonyl]-piperazine-dihydrochloride] | 27 | 60 | no animals died | –
3 | COC(=O)[C@H]1CC[C@H](NC(=O)C2CCN(c3ccc(C(=N)N)cc3)CC2)CC1.Cl [Example 1(24), 1-(4-amidinophenyl)-4-[N-[trans-4-(methoxycarbonyl)-cyclohexyl]-aminocarbonyl]-piperidine-hydrochloride] | 4400 | 220 | – | more than 4 hours
4 | Cl.Cl.N=C(N)c1ccc(N2CCN(C(=O)N[C@H]3CC[C@H](C(=O)O)CC3)CC2)cc1.O [Example 2, 1-(4-Amidinophenyl)-4-[N-[trans-4-carboxycyclohexyl]aminocarbonyl]-piperazine-dihydrochloride-hydrate] | 7.4 | 40 | no animals died | –
5 | NCc1ccc(N2CCN(C(=O)N[C@H]3CC[C@H](C(=O)O)CC3)CC2)cc1 [Example 3, 1-(4-Aminomethylphenyl)-4-[N-(trans-4-carboxycyclohexyl)-aminocarbonyl]-piperazine] | 130 | 230 | no animals died | –
6 | COC(=O)N=C(N)c1ccc(N2CCN(C(=O)N[C@H]3CC[C@H](C(=O)OC)CC3)CC2)cc1 [Example 5, 1-[4-(N-Methoxycarbonyl-amidinc)-phenyl]-4-[N-[trans-4-(methoxycarbonyl)-cyclohexyl]-aminocarbonyl]-piperazine] | – | – | no animals died | –
7 | CCOC(=O)[C@H]1CC[C@H](NC(=O)N2CCN(c3ccc(C(=N)N)cc3)CC2)CC1 [Example 8, 1-(4-Amidinophenyl)-4-[N-[trans-4-(ethoxycarbonyl)-cyclohexyl]-aminocarbonyl]-piperazine-dihydrochloride] | 540 | 190 | – | –
